Results as given in PubChem BioAssay (NCI).
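In this assay, cells in 96-well plates receive the compound at five concentrations for 48 hours. Endpoints are linearly interpolated between the surrounding concentrations. At the TGI there is no net growth.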

Assays:
Assay in all cases: NCI tumour cell line growth inhibition, 48 h
SNB-78 CNS = test system: SNB-78 CNS
LXFL 529 NSCLC = test system: LXFL 529 NSCLC
KM20L2 colon = test system: KM20L2 colon
DMS 273 small cell lung = test system: DMS 273 small cell lung
DLD-1 colon = test system: DLD-1 colon
M19-MEL melanoma = test system: M19-MEL melanoma
XF 498 CNS = test system: XF 498 CNS
DMS 114 small cell lung = test system: DMS 114 small cell lung
SN12K1 renal = test system: SN12K1 renal
P388 leukemia = test system: P388 leukemia
P388/ADR leukemia = test system: P388/ADR leukemia
RXF-631 renal = test system: RXF-631 renal

Compound	TGI (SNB-78 CNS) [µM]	TGI (LXFL 529 NSCLC) [µM]	TGI (KM20L2 colon) [µM]	TGI (DMS 273 small cell lung) [µM]	TGI (DLD-1 colon) [µM]	TGI (M19-MEL melanoma) [µM]	TGI (XF 498 CNS) [µM]	TGI (DMS 114 small cell lung) [µM]	TGI (SN12K1 renal) [µM]	TGI (P388 leukemia) [µM]	TGI (P388/ADR leukemia) [µM]	TGI (RXF-631 renal) [µM]
CCN(CC)CCCC(C)Nc1ccnc2ccc3nn(C)nc3c12 (stereo not drawn)	> 100	> 100	> 100	91.5	> 100	> 100						
c1ccc(C2=NOC3(c4ccccc4)SC4CCCCC4CN23)cc1 (stereo not drawn)	91.7	27	> 100	77.3	> 100	> 100	> 100	30.5				
COc1ccc(C2Oc3cc(OC)c(O)c(C)c3[C@H]2C)cc1 (stereo partly drawn)	> 100	> 100	> 100	> 100	> 100	> 100		> 100				
NC(=O)c1coc(C2OC(CO)C(O)C2O)n1 (stereo not drawn)	> 100	> 100	> 100	> 100		> 100		> 100				
COC1C(O)C(C)OC(OC2C(Oc3cccc4c(O)c5c(=O)oc6ccc(C)c7c(=O)oc(c34)c5c67)OC(C)C(O)C2O)C1O (stereo not drawn)	19.3		18.5	9.1	14.9	4.39	3.37	4.03	3.5	3.48	85	
CN(CCO)c1nc(N)cc(=O)[nH]1	> 100	> 100	> 100	> 100	> 100	> 100	> 100	> 100				
CS(=O)(=O)c1c(N)c2nc(Cl)cn2c2nc3ccccc3nc12	> 100	> 100	> 100	> 100	> 100	> 100	> 100	> 100				> 100
O=c1[nH]c2cc([N+](=O)[O-])ccc2nc1/C(=N/Nc1ccccc1)C(O)c1ccc(C(O)/C(=N\Nc2ccccc2)c2cnc3cc([N+](=O)[O-])ccc3n2)cc1 (stereo not drawn)			> 100			> 100		> 100				
O=C(Cc1csc(-c2nc(CC(=O)NNc3ccccc3)cs2)n1)NNc1ccccc1	> 100	> 100	> 100	34.2	> 100	> 100	> 100	45.1				
Clc1ccccc1C1=NN(c2ccccc2)C2c3ccccc3OCC12 (stereo not drawn)	> 100	> 100	> 100	> 100	> 100	> 100	> 100	> 100				> 100
CC(C)(C)NC(=O)NC12CC3CC(CC(F)(C3)C1)C2	> 100	> 100	> 100	> 100	> 100	> 100	> 100	> 100				> 100
